Where two headings read alike, the source gives them in different places.
What was measured:
Format in all cases: cell-based
[1] = target: T1, wild type human CFTR (Homo sapiens, UniProt P13569); assay: Yellow Fluorescent Protein (YFP) halide assay in wild type CFTR (HEK293 cells); details: HEK293 cells transfected with wild type human CFTR; 24 h incubation; 10 μM forskolin; read-out: EC50 of inhibition of WT CFTR
T1 construct: expressed in transfected cells; host or cells: HEK293
Description: To evaluate the ability of a test compound to inhibit wild type CFTR, a YFP halide assay using HEK293 cells transfected with wild type human CFTR was developed. (Galietta, Jayaraman, and Verkman 2001) Cells were incubated during 24 h with a dose range of test compound and the resulting wild type CFTR activity was plotted to obtain the EC50.
Test compounds were also added together with forskolin to wild type CFTR expressing cells in order to fully active the available CFTR at the plasma membrane and determine accurately the inhibition of the channel activity.
HEK293 cells were transfected with 10 to 80 ng of wild type CFTR and 20 ng of plasmid encoding YFP (H148Q/I152L/F47L) using jetPEI (Polyplus transfection). Directly after transfection, cells were seeded in black 96-well plates coated with Poly-D-lysine at a density of 70,000 cells per well. The next day, cells were treated with corrector(s) for 24 h. After this incubation period, cells were washed twice with DPBS with Ca^2+ and Mg^2+. Subsequently, cells were treated with 10 μM forskolin and the desired concentration of potentiator in a volume of 40 μl and incubated at room temperature for 10 min, a time point optimized in previous experiments resulting in a good window (positive control/negative control >2) and signal to background ratio. YFP fluorescence was measured using an EnVision plate reader (PerkinElmer). […]

[2] = target: T2, wt CFTR (CFTR channel) (Homo sapiens, UniProt P13569); assay: TECC assay on normal primary human bronchial epithelial (HBE) cells; details: 0.3 μM forskolin
T2 construct: evaluate compounds on normal primary bronchial epithelial cells (HBE cells); endogenous in cells; host or cells: normal primary human bronchial epithelial (HBE) cells from donor lungs
T2 sequence (P13569 whole entry): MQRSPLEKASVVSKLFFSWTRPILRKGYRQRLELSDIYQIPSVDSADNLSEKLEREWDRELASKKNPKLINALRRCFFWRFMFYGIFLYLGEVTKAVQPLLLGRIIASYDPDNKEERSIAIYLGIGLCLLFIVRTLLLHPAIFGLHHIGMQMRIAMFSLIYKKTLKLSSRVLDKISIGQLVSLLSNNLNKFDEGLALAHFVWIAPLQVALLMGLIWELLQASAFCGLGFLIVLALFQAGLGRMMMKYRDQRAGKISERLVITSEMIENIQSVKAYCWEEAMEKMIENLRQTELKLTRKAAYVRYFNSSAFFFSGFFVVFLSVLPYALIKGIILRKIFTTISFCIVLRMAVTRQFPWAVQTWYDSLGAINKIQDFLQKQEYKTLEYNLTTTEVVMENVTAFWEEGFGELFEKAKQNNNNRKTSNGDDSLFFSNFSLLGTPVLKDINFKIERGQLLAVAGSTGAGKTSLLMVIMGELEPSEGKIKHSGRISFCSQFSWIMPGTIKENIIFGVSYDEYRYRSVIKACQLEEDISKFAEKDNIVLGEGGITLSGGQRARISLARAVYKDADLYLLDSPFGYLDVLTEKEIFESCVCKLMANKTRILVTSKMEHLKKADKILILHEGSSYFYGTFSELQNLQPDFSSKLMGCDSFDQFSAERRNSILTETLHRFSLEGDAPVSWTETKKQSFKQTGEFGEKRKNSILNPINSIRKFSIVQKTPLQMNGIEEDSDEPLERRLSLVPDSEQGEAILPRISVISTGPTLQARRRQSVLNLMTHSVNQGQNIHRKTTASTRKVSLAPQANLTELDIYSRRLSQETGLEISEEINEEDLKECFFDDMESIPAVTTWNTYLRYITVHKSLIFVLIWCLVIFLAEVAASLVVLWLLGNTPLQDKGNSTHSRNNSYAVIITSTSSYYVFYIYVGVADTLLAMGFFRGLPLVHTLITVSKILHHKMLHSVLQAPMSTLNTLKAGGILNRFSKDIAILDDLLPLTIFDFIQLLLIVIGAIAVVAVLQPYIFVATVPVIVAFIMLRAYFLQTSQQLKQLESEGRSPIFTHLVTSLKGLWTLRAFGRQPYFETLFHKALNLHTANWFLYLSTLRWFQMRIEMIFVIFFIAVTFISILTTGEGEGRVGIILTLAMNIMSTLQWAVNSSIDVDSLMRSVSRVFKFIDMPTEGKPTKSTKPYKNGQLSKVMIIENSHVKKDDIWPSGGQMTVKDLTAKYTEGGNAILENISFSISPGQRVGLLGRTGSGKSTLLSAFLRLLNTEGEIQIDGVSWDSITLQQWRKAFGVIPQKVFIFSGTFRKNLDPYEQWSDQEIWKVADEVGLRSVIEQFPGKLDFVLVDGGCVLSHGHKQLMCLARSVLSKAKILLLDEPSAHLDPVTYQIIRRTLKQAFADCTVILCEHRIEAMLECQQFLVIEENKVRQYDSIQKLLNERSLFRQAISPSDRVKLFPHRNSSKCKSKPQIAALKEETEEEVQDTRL
Description: The TECC assay is used to evaluate compounds on normal primary bronchial epithelial cells (HBE cells), which are closer to physiological conditions
Bronchial epithelial cells isolated from transplanted lungs from normal (wt CFTR) were isolated from lungs obtained from donors undergoing a planned transplantation. These primary cells were cultured directly on type IV collagen-coated polycarbonate Transwell supports with a diameter of 6.5 mm and pore size of 0.4 μm (Costar, #3397) for 18 to 25 days in air liquid (ali) interface essentially as previously described for TECC. (Fulcher et al. 2005)
Trans-epithelial clamp circuit (TECC) recordings were performed using the TECC instrument developed and sold by EP Design (Bertem, Belgium). During the recording, the epithelial cells were bathed in a NaCl-Ringer solution (120 mM NaCl, 20 mM HEPES, 1.2 mM CaCl2, 1.2 mM MgCl2, 0.8 mM KH2PO4, 0.8 mM K2HPO4, 5 mM glucose, pH 7.4) on both the basolateral (640 μl) and the apical side (160 μl) and kept at 37° C. Apical amiloride was used to inhibit the endogenous ENaC currents (100 μM) while forskolin (0.3 μM) was applied on both the apical and basolateral sides to stimulate CFTR. All triggers and compounds used during the experiment were first dissolved in DMSO to a 1000× concentrated solution, just prior to treatment a 10× stock was prepared in the NaCl-Ringer solution which was used for addition of the correct concentration of trigger and or compound during the experiment. Cells were treated with test compounds for 24 hours before recording and this treatment was repeated in the TECC buffer prior to the electrophysiological recording. Measurements were done during a 20-min timeframe with recordings every 2 min. The transepithelial potential (PD) and transepithelial resistance (Rt) were measured in an open circuit and transformed to Ieq using Ohm's law. The maximal increase in Ieq (Δ Ieq) was used as a measure for the increased CFTR activity.

[3] = target: T3, wild type mouse CFTR (Mus musculus, UniProt P26361); assay: YFP halide (YHA) assay in mIMCD3_wt cells, Cpd 1 with Metformin
T3 construct: expressed in transfected cells; host or cells: mouse mIMCD3_wt cells (ATCC CRL-2123)
T3 sequence (P26361 whole entry): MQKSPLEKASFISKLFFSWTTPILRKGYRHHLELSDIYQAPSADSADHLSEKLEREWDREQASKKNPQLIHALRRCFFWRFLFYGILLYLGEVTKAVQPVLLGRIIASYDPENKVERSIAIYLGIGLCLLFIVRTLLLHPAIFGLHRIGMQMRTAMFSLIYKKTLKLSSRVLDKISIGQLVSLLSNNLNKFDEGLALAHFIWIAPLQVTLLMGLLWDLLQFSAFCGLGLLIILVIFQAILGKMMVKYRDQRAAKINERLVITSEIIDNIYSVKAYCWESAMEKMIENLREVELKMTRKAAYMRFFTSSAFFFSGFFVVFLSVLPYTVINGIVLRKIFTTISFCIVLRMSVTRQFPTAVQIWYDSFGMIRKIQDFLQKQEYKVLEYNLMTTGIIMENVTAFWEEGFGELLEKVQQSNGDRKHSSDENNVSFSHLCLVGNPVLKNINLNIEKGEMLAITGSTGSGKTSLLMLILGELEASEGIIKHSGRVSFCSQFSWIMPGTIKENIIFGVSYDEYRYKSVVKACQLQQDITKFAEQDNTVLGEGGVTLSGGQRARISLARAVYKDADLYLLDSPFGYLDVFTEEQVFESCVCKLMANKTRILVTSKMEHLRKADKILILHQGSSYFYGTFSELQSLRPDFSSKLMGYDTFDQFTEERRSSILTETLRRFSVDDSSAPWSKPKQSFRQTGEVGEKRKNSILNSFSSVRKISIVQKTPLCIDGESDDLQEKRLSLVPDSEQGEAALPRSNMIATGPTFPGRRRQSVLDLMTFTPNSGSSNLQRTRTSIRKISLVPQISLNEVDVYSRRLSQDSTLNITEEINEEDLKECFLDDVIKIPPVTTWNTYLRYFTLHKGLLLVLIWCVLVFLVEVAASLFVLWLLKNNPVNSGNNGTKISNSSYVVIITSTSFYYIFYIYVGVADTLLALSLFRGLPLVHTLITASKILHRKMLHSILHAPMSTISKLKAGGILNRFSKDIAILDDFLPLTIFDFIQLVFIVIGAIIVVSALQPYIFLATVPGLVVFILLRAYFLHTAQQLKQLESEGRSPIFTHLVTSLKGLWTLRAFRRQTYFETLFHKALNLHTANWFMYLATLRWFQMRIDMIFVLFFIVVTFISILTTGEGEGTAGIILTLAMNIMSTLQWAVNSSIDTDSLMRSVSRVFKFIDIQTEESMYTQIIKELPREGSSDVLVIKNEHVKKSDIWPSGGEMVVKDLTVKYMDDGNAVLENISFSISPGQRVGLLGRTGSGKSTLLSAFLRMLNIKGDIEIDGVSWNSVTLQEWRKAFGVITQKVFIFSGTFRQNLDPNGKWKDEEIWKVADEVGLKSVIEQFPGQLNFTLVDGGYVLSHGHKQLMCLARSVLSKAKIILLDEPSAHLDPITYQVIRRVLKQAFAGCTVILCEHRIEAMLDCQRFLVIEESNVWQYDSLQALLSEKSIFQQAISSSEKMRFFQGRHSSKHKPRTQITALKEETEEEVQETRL
Description: To evaluate the ability of a test compound combination to inhibit wild type CFTR using tubular kidney cells, a YFP halide assay using mIMCD3_wt cells (ATCC® CRL-2123) transfected with wild type mouse CFTR was developed (Galietta, Jayaraman, and Verkman 2001). Cells were incubated during 24 h with a dose range of compound 1 or a combination of a dose range of compound 1 with increasing dose of Metformin Immediately before measurement, forskolin together with a dose range of compound 1 combined or not with increasing dose of Metformin was added the wild type CFTR expressing mIMCD3 cells in order to fully activate the available CFTR at the plasma membrane. Inhibition of the channel by test compounds was plotted to obtain IC50s.
Mouse mIMCD3_wt cells were transfected with 20 ng of wild type CFTR and 80 ng of plasmid encoding YFP (H148Q/I152L/F47L) using jetPEI (Polyplus transfection). Directly after transfection, cells were seeded in black 96-well plates coated with Poly-D-lysine at a density of 40,000 cells per well. The next day, cells were treated with compounds for 24 h. After this incubation period, cells were washed twice with DPBS with Ca^2+ and Mg^2+. Subsequently, cells were treated with 10 μM forskolin and the desired concentrations of compounds in a volume of 40 μl and incubated at room temperature for 15 min, a time point optimized in previous experiments resulting in a good window (positive control/negative control>2) and signal to background ratio. YFP fluorescence was measured using an EnVision plate reader (PerkinElmer). […] The excitation wavelength was 485 nm and the emission wavelength 530 nm.
Concentration-response experiments were fitted using a 4 parameter hill function of the form Response=Bottom+(Top−Bottom)/(1+(EC50/concentration)^HillSlope)) to determine EC50 values.

T1 sequence (P13569 whole entry): as the sequence (P13569 whole entry) above

EC50 [1]: 0.728 µM
IC50 ([2]; read-out: IC50 value (resulting from pIC50) (converted)): 0.108 µM
reduction of channel activity ([2]; vs DMSO control): 54%
current after incubation (Ieq) ([2]; 24 h treatment): 6.6 μA/cm^2
EC50 ([3]; Compound 1 alone at 30 μM, mouse mIMCD3_wt cells, read-out: EC50 of inhibition of mouse CFTR activity): 3.12 µM
IC50 ([3]; [Metformin] 0 μM, mIMCD3_wt cells, read-out: IC50): 3.12 µM
IC50 ([3]; [Metformin] 20 μM, mIMCD3_wt cells, read-out: IC50): 3.67 µM
IC50 ([3]; [Metformin] 40 μM, mIMCD3_wt cells, read-out: IC50): 2.32 µM
IC50 ([3]; [Metformin] 80 μM, mIMCD3_wt cells, read-out: IC50): 3.79 µM
IC50 ([3]; [Metformin] 160 μM, mIMCD3_wt cells, read-out: IC50): 2.91 µM
IC50 ([3]; [Metformin] 310 μM, mIMCD3_wt cells, read-out: IC50): 1.91 µM
IC50 ([3]; [Metformin] 630 μM, mIMCD3_wt cells, read-out: IC50): 1.77 µM
IC50 ([3]; [Metformin] 1250 μM, mIMCD3_wt cells, read-out: IC50): 1.82 µM
IC50 ([3]; [Metformin] 2500 μM, mIMCD3_wt cells, read-out: IC50): 0.83 µM
IC50 ([3]; combined with 5 μM of Metformin, mouse mIMCD3 cells, read-out: IC50 of inhibition of mouse CFTR): 0.92 µM
SMILES: COC1CCN(C2CCN(c3cc(C(=O)NS(=O)(=O)N(C)C)nc4c3c(C3CCC3)nn4-c3ccc(F)cc3)CC2)CC1 [Cpd 1]
